Data from patent US10899790B2, “Method for modifying T cell population” (OSAKA UNIVERSITY, priority 2016, dated 2021).
Entries after “also recorded” stand apart in the source; their conditions may differ.

How the values were obtained:
[1] = system: Healthy human-derived CD4+CD45RO+T cells; experiment: Effect in vitro: CD62L and CD127 expression in cultured T cells by flow cytometry; format: cell-based; settings: 20 μM; anti-CD3, anti-CD28, IL-2; vs DMSO control (FIG. 2)
Description: Healthy human-derived CD4^+CD45RO^+T cells (1×10^5) were cultured in the presence of anti-CD3 antibody (2 μg/ml), anti-CD28 antibody (2 μg/ml), IL-2 (20 IU/ml) and RDH10 inhibitors (Compound No. 16 (RDHI-032), Compound No. 17 (RDHI-033), and Compound No. 18 (RDHI-034)) (20 μM for each). In addition, DMSO was used as a control for the RDH10 inhibitor. After seven days […] resuspended in a fresh culture medium to which IL-2 was not added, and cultured for one more day. Thereafter, the expression of CD62L and CD127 in T cells was analyzed by flow cytometry. The culture solution used was X-VIVO15 to which AB serum was added to have a final concentration of 10%.

[2] = target: T1, Retinol Dehydrogenase 10 (RDH10) (Homo sapiens, UniProt Q8IZV5); experiment: Inhibition of RDH10 enzyme activity (microsomal fraction of RDH10-expressed 293T, all-trans retinol to all-trans retinal, HPLC); format: biochemical; settings: final concentration of 20 μM; relative to DMSO control (FIG. 1)
T1 construct: expressed in transfected cells; host or cells: 293T (microsomal fraction)
T1 sequence (Q8IZV5 1-341): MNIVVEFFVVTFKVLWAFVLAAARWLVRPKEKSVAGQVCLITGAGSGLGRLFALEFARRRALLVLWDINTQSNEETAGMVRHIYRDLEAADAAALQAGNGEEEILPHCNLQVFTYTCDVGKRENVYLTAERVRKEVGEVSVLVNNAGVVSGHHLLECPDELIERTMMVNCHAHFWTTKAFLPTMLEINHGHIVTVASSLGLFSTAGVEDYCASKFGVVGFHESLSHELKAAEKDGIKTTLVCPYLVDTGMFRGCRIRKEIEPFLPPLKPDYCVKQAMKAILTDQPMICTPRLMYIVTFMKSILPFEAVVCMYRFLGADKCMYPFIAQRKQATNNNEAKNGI
Description: All-trans retinol, BSA, and NAD (nicotinamide adenine dinucleotide) as a coenzyme were added to a buffer for reaction (90 mM potassium phosphate buffer, pH7.4, 40 mM KCl) so as to have final concentrations of 10 μM, 10 μM, and 1 mM respectively. This mixture was taken in siliconized tubes by 200 μl for each, the microsomal fractions separated from 293T and RDH10-expressed 293T were added to separate tubes by 10 μl for each, and the mixtures were allowed to react at 37° C. for 15 minutes. After 200 μl of methanol was added to the reaction mixtures to stop the reaction, retinoid was extracted using hexane and concentrated. The concentrated retinoid was dissolved in 150 μl of acetonitrile, separated by HPLC, and subjected to the detection of ultraviolet light absorption at a wavelength of 350 nm, whereby the substrate (all-trans retinol) and the product (all-trans retinal) were detected. In addition, standard samples (all-trans retinol and all-trans retinal) were separated by HPLC and the retention times of the respective standard samples were determined in advance. The solvent for HPLC was acetonitrile: 50 mM ammonium acetate=75:25. As the separation column, Syhergi 4 μm Hydro-RP 80A (manufactured by Phenomenex) was used. In addition, the flow rate was 2.0 ml/min. The RDH10 enzyme activity was calculated by reading the amount of product per fixed time from the chart of HPLC.
All-trans retinol, BSA, and NAD (nicotinamide adenine dinucleotide) as a coenzyme were added to a buffer for reaction (90 mM potassium phosphate buffer, pH7.4, 40 mM KCl) so as to have final concentrations of 10 μM, 10 μM, and 1 mM respectively. This mixture was taken in siliconized tubes by 200 μl for each, the microsomal fraction separated from RDH10-expressed 293T was added to separate tubes by 10 μl for each. The RDH10 inhibitor dissolved in DMSO was added to each tube so as to have a final concentration of 20 μM, and the same amount of DMSO was added to the control tube. The mixture was allowed to react at 37° C. for 15 to 30 minutes, 200 μl of methanol was added to the reaction mixtures, and then retinoid was extracted using hexane and concentrated. The concentrated retinoid was dissolved in 150 μl of acetonitrile, separated by HPLC, and subjected to the detection of ultraviolet light absorption at a wavelength of 350 nm, whereby the substrate (all-trans retinol) and the product (all-trans retinal) were detected. In addition, standard samples (all-trans retinol and all-trans retinal) were separated by HPLC and the retention times of the respective standard samples were determined in advance. The solvent for HPLC was acetonitrile: 50 mM ammonium acetate=75:25. As the separation column, Syhergi 4 μm Hydro-RP 80A (manufactured by Phenomenex) was used. The flow rate was 2.0 ml/min.
The enzyme activity was determined by the waveform area of the product (all-trans retinal) with respective to the waveform area of the non-reacted substrate (all-trans retinol), and the relative value with respect to the enzyme activity in the control is illustrated in FIG. 1. The error bars indicate SD (standard deviation).

[3] = system: mouse cancer cell line EG7 expressing OVA; experiment: Effect in vivo: EG7 tumor-bearing B6 mice with transferred OT-1 cells; set-up: species or system C57BL/6J mouse
Text: A mouse cancer cell line EG7 (2×10^6) expressing OVA (chicken ovalbumin) was subcutaneously injected into C57BL/6J mouse (B6 mouse) to form a tumor. Five days later, the mouse in which a tumor was formed was irradiated with radiation at 3 Gy, then T cell-receptive OTCD8^+T cells (OT-1 cells) specific for OVA antigen were isolated from CD45.1 positive OT-I transgenic mouse, and this was transferred into the mouse by 2×10^5 through the tail vein. A total of 3 times every other day from the next day, RDH10 inhibitors (Compound No. 1 (RDHI-012) and Compound No. 2 (RDHI-013)) were administered to the mouse at 100 μg/mouse for each through the tail vein. The RDH10 inhibitors were administered to the mouse by being previously stocked in DMSO at 100 μg/50 μl and adjusted to have a total volume of 200 μl by the addition of 150 μl of PBS.
In the experiment, tumor volumes were measured over time. The frequency of OT-1 cells (OVA specific CD8^+T cells) in peripheral blood on the 20th day was measured. Furthermore, the expression intensity of cell surface antigen molecules (CD62L, CD127), which were markers of memory T cells, was analyzed.
The time course in the mean value of tumor volume after tumor transplantation is illustrated in FIG. 4. The error bars indicate the standard error. The tumor volume was determined by major axis×minor axis×height/2.
On the 20th day after the tumor transplantation, the frequency of transferred OT-I cells contained in peripheral blood was analyzed by flow cytometry. OT-I cells were CD45.1 positive and thus were clearly distinguishable from the host B6 mouse (CD45.2 positive)-derived T cells. The representative results are illustrated in FIG. 5.
The expression intensities of CD62L and CD127 in OT-I cells illustrated in FIG. 5 were analyzed by flow cytometry. The mean value and standard error of each expression intensity are illustrated in FIG. 6.

RDH10 enzyme activity inhibitory action [2]	Compound	amplification of memory T cells (CD62L+CD127+T cells) [1]	effector T cells (CD62L−CD127−T cells) [1]	frequency of CD45.1+OT-1 cells (OVA specific CD8+ cells) in peripheral blood ([3]; 100 μg/mouse tail vein, 20th day after tumor transplantation (FIG. 5))	expression of CD62L and CD127 in CD45.1+OT-1 cells ([3]; 100 μg/mouse tail vein, 20th day, flow cytometry (FIG. 6))	proliferation of tumor in vivo ([3]; 100 μg/mouse through the tail vein, 3 times every other day)	tumor volume ([3]; 100 μg/mouse through the tail vein, 3 times every other day, 21st day after transplantation (FIG. 4))
relatively potent	CC(=O)NC1CC[C@]2(C)[C@H]3C(=O)C=C4[C@@H]5C[C@@](C)(C(N)=O)CC[C@]5(C)CC[C@@]4(C)[C@]3(C)CC[C@H]2C1(C)C (stereo partly drawn) [Compound No. 17, (2S,4aS,6aS,6bR,8aR,12aS,12bR,14bR)-10-acetamido-2,4a,6a,6b,9,9,12a-heptamethyl-13-oxo-1,2,3,4,4a,5,6,6a,6b,7,8,8a,9,10,11,12,12a,12b,13,14b-icosahydropicene-2-carboxamide]	amplified memory T cells	decreased				
relatively potent	COC(=O)[C@@]1(C)CC[C@]2(C)CC[C@]3(C)C(=CC(=O)[C@@H]4[C@@]5(C)CCC(NC(=O)/C=C\C(=O)O)C(C)(C)[C@@H]5CC[C@]43C)[C@H]2C1 (stereo partly drawn) [Compound No. 5, (Z)-4-((4aR,6aR,6bS,8aS,11S,12aS,14aR,14bS)-11-(methoxycarbonyl)-4,4,6a,6b,8a,11,14b-heptamethyl-14-oxo-1,2,3,4,4a,5,6,6a,6b,7,8,8a,9,10,11,12,12a,14,14a,14b-icosahydropicen-3-ylamino)-4-oxobut-2-enoic acid]	tended to amplify memory cells					
relatively potent	CC1(C)C(NC(=O)c2ccccc2)CC[C@]2(C)[C@H]3C(=O)C=C4[C@@H]5C[C@@](C)(C(N)=O)CC[C@]5(C)CC[C@@]4(C)[C@]3(C)CC[C@@H]12 (stereo partly drawn) [Compound No. 18, (2S,4aS,6aS,6bR,8aR,12aS,12bR,14bR)-10-benzamide-2,4a,6a,6b,9,9,12a-heptamethyl-13-oxo-1,2,3,4,4a,5,6,6a,6b,7,8,8a,9,10,11,12,12a,12b,13,14b-icosahydropicene-2-carboxamide]	amplified memory T cells	decreased				
relatively potent	CC1(C)C(N)CC[C@]2(C)[C@H]3C(=O)C=C4[C@@H]5C[C@@](C)(C(N)=O)CC[C@]5(C)CC[C@@]4(C)[C@]3(C)CC[C@@H]12 (stereo partly drawn) [Compound No. 16, (2S,4aS,6aS,6bR,8aR,12aS,12bR,14bR)-10-amino-2,4a,6a,6b,9,9,12a-heptamethyl-13-oxo-1,2,3,4,4a,5,6,6a,6b,7,8,8a,9,10,11,12,12a,12b,13,14b-icosahydropicene-2-carboxamide]	amplified memory T cells	decreased				

Compound	RDH10 enzyme activity inhibitory action [2]	amplification of memory T cells (CD62L+CD127+T cells) [1]	effector T cells (CD62L−CD127−T cells) [1]	frequency of CD45.1+OT-1 cells (OVA specific CD8+ cells) in peripheral blood ([3]; 100 μg/mouse tail vein, 20th day after tumor transplantation (FIG. 5))	expression of CD62L and CD127 in CD45.1+OT-1 cells ([3]; 100 μg/mouse tail vein, 20th day, flow cytometry (FIG. 6))	proliferation of tumor in vivo ([3]; 100 μg/mouse through the tail vein, 3 times every other day)	tumor volume ([3]; 100 μg/mouse through the tail vein, 3 times every other day, 21st day after transplantation (FIG. 4))
COC(=O)[C@@]1(C)CC[C@]2(C)CC[C@]3(C)C(=CC(=O)[C@@H]4[C@@]5(C)CCC(N)C(C)(C)[C@@H]5CC[C@]43C)[C@H]2C1 (stereo partly drawn) [Compound No. 1, (2S,4aS,6aS,6bR,8aR,12aS,12bR,14bS)-methyl 10-amino-2,4a,6a,6b,9,9,12a-heptamethyl-13-oxo-1,2,3,4,4a,5,6,6a,6b,7,8,8a,9,10,11,12,12a,12b,13,14b-icosahydropicene-2-carboxylate]	relatively potent; also recorded: potent RDH10 enzyme activity inhibitory action			amplify CD45.1^+OT-1 cells	accelerate the expression of CD62L and CD127	suppress the proliferation of tumor in vivo	decreased to one several tenths to one several hundredths
COC(=O)[C@@]1(C)CC[C@]2(C)CC[C@]3(C)C(=CC(=O)[C@@H]4[C@@]5(C)CCC(NC(=O)N6CCOCC6)C(C)(C)[C@@H]5CC[C@]43C)[C@H]2C1 (stereo partly drawn) [Compound No. 22, (2S,4aS,6aS,6bR,8aR,12aS,12bR,14bS)-methyl 2,4a,6a,6b,9,9,12a-heptamethyl-10-(morpholine-4-carboxamido)-13-oxo-1,2,3,4,4a,5,6,6a,6b,7,8,8a,9,10,11,12,12a,12b,13,14b-icosahydropicene-2-carboxylate]	exhibited the RDH10 enzyme activity inhibitory action	tended to amplify memory cells					
COC(=O)[C@@]1(C)CC[C@]2(C)CC[C@]3(C)C(=CC(=O)[C@@H]4[C@@]5(C)CCC(NC(=O)N6CCOCC6)C(C)(C)[C@@H]5CC[C@]43C)[C@@H]2C1 (stereo partly drawn) [Compound No. 23, (2S,4aS,6aS,6bR,8aR,12aS,12bR,14bR)-methyl 2,4a,6a,6b,9,9,12a-heptamethyl-10-(morpholine-4-carboxamido)-13-oxo-1,2,3,4,4a,5,6,6a,6b,7,8,8a,9,10,11,12,12a,12b,13,14b-icosahydropicene-2-carboxylate]	exhibited the RDH10 enzyme activity inhibitory action	tended to amplify memory cells					
